According to publication PMC7718273 (Scientific Reports, 2020):
Values after ≈ are worked out from the molar mass of the structure shown. Values joined by “and” are separate entries in the source; they are usually repeats but may differ in a detail not shown here. Equal values may be shown once. Read-outs that look alike come from different tables or passages of the source.

Assays:
[1] = Microsomal stability, rat; format: in vitro ADME; settings: liver microsomes, pH 7.4, rat (R), 0.5 mg/mL, NADPH, read-out: Microsomal stability (% remaining at 60 min)
Description: (§1) Aliquots were then transferred in duplicate to: (i) a final concentration plate that was immediately quenched with 23.6 ng/mL internal standard (IS, chlorpropamide) in acetonitrile (ACN) or (ii) tubes, which were centrifuged for 5 min at 4℃ (14,000 rpm). The samples were subjected to LC–MS/MS analysis on an AB Sciex 4000 Q Trap hybrid triple quadrupole linear ion-trap MS (AB Sciex, Framingham, MA) coupled to an Agilent 1200 HPLC (Agilent Tech. Santa Clara, CA) with a reverse-phase Kinetex XB-C18 column (2.1 × 100 mm, 2.6 µm; Phenomenex). Mobile phases were comprised of 0.1% formic acid (FA) in water (A) and 0.1 FA in ACN (B). Data analysis was performed using […] (Ver. 1.6.1).

[2] = Pharmacokinetic study in mice; format: in vivo, C57BL/6J mice; settings: mouse, plasma
Description: Mice were administered with BR103354 either p.o. […] (2 mg/kg). […] These samples were then centrifuged at 13,000 rpm for 10 min to obtain plasma. […] Samples were analyzed on an API 4500 Qtrap LC‐MS/MS system (Applied Biosystems/MDS Sciex, Toronto, Canada) coupled with Agilent 1200 HPLC (Agilent Technologies, Santa Clara, CA). Plasma concentration–time data were analyzed by non-compartmental method using the nonlinear least-squares regression program WinNonlin (Pharsight, Mountain View, CA).

Thermodynamic solubility = format: physicochemical; settings: thermodynamic from solid
ob/ob mice = assay: Acute study using ob/ob mice: blood glucose and intact hFGF21; settings: for nonfasting blood glucose level, average: 3 h after administration
Description: Blood was collected at the indicated time points. (a) Nonfasting blood glucose levels were measured at the indicated time points. […] (c) Plasma intact hFGF21 levels were measured using ELISA kit at 1, 3, 6, and 9 h. All data are the means ± S.D. *P < 0.05, **P < 0.01 and *** P < 0.001 vs. vehicle group.
Blood was promptly collected by orbital bleeding that was allowed to clot, and supernatant was collected after centrifugation at 4 °C at 3000 rpm. Serum intact FGF21 concentrations were measured by intact hFGF21 ELISA (Alpco, Keewaydin Dr, Salem, NH, catalog no. 43-FGFHU-E01)[29].

serum FAP [3] = target: T1, serum FAP (Homo sapiens, UniProt Q12884); assay: IC50 on serum FAP, humans; format: biochemical
T1 construct: also found in human serum as a soluble form lacking the transmembrane domain; from tissue; host or cells: human serum

[4] = Plasma protein binding, mouse; format: in vitro ADME; settings: mouse (M), read-out: Plasma protein binding (% bound) (converted)
hERG = target: T2, hERG (Homo sapiens, UniProt Q12809); assay: hERG binding assay based on fluorescence polarization
T2 construct: purchased Invitrogen; host or cells: membrane preparation of the kit
Description: Predictor hERG Assay test kits were obtained from Invitrogen (Carlsbad, CA). The binding assay was carried out according to the manufacturer’s instructions. […] Working Tracer solution (5 μL) was then added and the plate was allowed to incubate at room temperature for at least 1 h, and then fluorescence polarization was measured using the Synergy 4 Hybrid Microplate Reader from BioTek Instruments (Winooski, VT) with 530/25 excitation and 590/35 emission filters along with a 570 nm cut off dichroic mirror. Polarization values were calculated automatically using Gen Data Analysis Software (BioTek Instruments). The above protocol is described in detail in the Invitrogen’s application note.

DPP4 = target: T3, DPP4 (Homo sapiens, UniProt P27487); assay: DPP4 activity, fluorometric assay with AMC substrate; format: biochemical; settings: fluorometric assay using AMC substrates
T3 construct: purchased R&D Systems 9168-SE
Description: Recombinant human PREP (hPREP) (catalog no. 4308-SE), hDPP2/7 (catalog no. 3438-SE), hDPP9 (catalog no. 5419-SE), hFAP (catalog no. 3715-SE), and hDPP4 (catalog no. 9168-SE) proteins were from R&D Systems (Minneapolis, MN). Human FGF21 (catalog no. CRF159C) was from Cell Science (Newburyport, MA).
FAP enzyme activities were assayed in 20 mM Tris/HCl, 0.1 M NaCl, 1 mM EDTA (pH 8.0) in the presence of 40 μM Suc-Gly-Pro-Leu-Gly-Pro-AMC (#I-1350.0100, BACHEM, Bubendorf, Switzerland) and hFAP in a total volume of 100 µL. […] The inhibitor concentrations ranged from 100 μM to 0.03 nM, and its IC50 values were computed with commercially available curve-fitting programs such as the SigmaPlot. Other protease activities were determined in a similar manner.

serum FAP [5] = target: serum FAP (Macaca fascicularis, UniProt A0A2K5VGH4); assay: IC50 on serum FAP, monkeys; format: biochemical; settings: read-out: Serum FAP IC50 (nM): Monkey
recombinant human FAP = tested on: T4, recombinant human FAP; assay: FAP-mediated cleavage of hFGF21 in cell-free system (SDS-PAGE/immunoblot); format: biochemical; settings: hFGF21 200 nM, hFAP 50 nM, SDS-PAGE
T4 construct: purchased R&D Systems 3715-SE

[6] = Microsomal stability, mouse; format: in vitro ADME; settings: liver microsomes, pH 7.4, mouse (M), 0.5 mg/mL, NADPH, read-out: Microsomal stability (% remaining at 60 min)
Description: as §1

[7] = Microsomal stability, dog; format: in vitro ADME; settings: liver microsomes, pH 7.4, dog (D), 0.5 mg/mL, NADPH, read-out: Microsomal stability (% remaining at 60 min)
Description: as §1

in vivo = settings: cynomolgus monkey, plasma, inhaled or intranasal, 50 mg/kg
Description: (§2) Intact FGF21 levels in plasma were measured by ELISA.
(§3) FAP activity and intact FGF21 concentrations were measured as described above.

FAP = assay: In vivo study using cynomolgus monkeys: plasma FAP activity; set-up: species or system cynomolgus monkey; settings: 50 mg/kg intranasal
[8] = tested on: Normal cynomolgus monkeys; assay: In vivo study using cynomolgus monkeys: plasma concentration and intact FGF21; settings: cynomolgus monkeys (n = 3), 50 mg/kg intranasal, range of individual animals
Description: as §2, §3

[9] = male, C57BL/6J, po, p.o. 1 mg/kg
[10] = male, C57BL/6J, po, p.o. 5 mg/kg
[11] = male, C57BL/6J, po, p.o. 10 mg/kg
[12] = male, C57BL/6J, po, p.o. 100 mg/kg
[13] = male, C57BL/6J, po, p.o. 200 mg/kg

Sequence of serum FAP (Macaca fascicularis, UniProt A0A2K5VGH4) (A0A2K5VGH4 entry or part of it): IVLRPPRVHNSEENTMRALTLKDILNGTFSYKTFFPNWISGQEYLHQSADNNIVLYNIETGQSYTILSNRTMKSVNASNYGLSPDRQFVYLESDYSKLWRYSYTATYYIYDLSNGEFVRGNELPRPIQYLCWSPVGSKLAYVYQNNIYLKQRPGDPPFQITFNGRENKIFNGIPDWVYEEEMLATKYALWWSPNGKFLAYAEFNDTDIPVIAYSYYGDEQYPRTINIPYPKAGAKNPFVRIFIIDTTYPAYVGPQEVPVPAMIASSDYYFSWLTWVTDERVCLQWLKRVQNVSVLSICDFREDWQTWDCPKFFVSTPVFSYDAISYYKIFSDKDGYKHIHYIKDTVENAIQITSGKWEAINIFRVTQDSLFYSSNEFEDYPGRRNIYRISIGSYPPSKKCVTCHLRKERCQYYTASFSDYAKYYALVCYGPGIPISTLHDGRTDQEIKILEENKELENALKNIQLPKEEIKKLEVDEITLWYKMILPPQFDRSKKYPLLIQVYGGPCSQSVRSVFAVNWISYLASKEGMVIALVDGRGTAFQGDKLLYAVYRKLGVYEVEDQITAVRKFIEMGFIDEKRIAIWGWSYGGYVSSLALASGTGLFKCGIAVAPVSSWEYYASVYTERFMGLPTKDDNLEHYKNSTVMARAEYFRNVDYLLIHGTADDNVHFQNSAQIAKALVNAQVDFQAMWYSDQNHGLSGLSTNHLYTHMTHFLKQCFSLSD
T1 sequence (Q12884 24-760 limits assumed): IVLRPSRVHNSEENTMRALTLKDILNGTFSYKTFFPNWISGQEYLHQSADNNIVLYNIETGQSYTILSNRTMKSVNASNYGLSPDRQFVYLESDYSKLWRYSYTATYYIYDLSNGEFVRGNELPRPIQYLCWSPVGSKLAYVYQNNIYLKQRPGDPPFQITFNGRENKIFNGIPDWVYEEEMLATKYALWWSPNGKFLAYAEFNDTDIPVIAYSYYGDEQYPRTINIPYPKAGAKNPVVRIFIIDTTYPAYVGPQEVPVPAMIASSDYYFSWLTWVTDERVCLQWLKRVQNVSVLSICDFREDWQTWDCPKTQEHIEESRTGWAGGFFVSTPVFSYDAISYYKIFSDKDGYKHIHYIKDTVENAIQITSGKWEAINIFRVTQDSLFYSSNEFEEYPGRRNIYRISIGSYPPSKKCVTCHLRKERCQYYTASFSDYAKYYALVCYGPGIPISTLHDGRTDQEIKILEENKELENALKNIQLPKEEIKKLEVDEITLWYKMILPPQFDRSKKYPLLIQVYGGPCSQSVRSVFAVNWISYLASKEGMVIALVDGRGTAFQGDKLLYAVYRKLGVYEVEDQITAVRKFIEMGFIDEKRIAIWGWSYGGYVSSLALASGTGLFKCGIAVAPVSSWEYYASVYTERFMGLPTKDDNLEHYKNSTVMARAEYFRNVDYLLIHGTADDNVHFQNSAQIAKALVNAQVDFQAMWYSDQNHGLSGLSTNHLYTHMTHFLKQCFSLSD
T2 sequence (Q12809 whole entry): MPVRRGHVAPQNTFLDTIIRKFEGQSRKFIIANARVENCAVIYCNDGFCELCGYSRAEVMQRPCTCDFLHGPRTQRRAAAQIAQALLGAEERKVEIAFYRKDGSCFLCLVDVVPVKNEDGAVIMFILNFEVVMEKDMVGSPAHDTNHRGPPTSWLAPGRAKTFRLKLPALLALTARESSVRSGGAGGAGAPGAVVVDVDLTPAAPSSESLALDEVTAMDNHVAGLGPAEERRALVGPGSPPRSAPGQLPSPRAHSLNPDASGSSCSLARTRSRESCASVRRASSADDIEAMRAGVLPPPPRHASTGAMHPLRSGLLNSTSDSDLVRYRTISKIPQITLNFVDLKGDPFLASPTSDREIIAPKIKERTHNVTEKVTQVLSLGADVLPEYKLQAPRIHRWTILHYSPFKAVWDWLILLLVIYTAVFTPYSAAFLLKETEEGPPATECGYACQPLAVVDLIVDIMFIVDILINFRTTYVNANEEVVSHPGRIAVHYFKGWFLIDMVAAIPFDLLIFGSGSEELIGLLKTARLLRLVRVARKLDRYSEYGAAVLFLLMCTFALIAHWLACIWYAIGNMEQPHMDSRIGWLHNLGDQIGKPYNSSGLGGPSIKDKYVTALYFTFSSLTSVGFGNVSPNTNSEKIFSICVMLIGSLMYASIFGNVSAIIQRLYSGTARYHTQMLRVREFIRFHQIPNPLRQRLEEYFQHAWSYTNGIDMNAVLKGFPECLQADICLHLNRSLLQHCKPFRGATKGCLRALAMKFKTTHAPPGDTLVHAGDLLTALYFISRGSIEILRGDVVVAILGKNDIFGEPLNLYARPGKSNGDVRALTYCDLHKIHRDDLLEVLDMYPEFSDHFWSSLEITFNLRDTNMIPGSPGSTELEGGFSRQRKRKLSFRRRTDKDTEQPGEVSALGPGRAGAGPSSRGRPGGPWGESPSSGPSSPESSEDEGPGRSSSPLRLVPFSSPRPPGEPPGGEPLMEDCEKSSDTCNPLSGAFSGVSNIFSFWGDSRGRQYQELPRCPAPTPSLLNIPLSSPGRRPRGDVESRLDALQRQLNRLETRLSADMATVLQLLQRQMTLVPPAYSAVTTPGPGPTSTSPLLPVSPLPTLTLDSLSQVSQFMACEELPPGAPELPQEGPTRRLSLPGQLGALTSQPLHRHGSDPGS
T3 sequence (P27487 whole entry): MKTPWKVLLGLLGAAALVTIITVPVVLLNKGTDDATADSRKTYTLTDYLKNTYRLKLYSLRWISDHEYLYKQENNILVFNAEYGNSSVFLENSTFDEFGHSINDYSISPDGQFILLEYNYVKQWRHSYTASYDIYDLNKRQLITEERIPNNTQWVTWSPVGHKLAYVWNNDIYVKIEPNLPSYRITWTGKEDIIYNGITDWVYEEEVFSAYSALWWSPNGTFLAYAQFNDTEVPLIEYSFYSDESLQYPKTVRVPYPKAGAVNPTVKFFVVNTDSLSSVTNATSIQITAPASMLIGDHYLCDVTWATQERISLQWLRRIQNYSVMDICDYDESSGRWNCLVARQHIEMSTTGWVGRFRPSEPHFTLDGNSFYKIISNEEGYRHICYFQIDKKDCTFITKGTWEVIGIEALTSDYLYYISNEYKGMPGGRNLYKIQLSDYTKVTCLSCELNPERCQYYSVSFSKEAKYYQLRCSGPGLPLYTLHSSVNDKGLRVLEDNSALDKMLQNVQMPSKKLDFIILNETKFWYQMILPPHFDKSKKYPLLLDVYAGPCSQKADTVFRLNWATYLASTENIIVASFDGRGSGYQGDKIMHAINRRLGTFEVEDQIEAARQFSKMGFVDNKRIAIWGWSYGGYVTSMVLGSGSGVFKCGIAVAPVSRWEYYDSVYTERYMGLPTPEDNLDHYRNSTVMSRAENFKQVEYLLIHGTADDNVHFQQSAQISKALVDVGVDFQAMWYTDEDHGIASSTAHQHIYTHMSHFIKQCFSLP

`N#Cc1ccc(Cc2nc(C(=O)NCC(=O)N3CC(F)(F)C[C@H]3C#N)cs2)cc1` [BR103354, (S)-N-(2-(2-cyano-4,4-difluoropyrrolidin-1-yl)-2-oxoethyl)-2-(4-cyanobenzyl)thiazole-4-carboxamide] showed a remaining at 1 h, 1 µM [1] of 87%, a half-life ([2]; male, C57BL/6J, po, mice, all doses, read-out: half-life (T1/2), range over doses) of 1.2 to 4 h and an AUC(0-t) [2, 9] of 3700 ng·h/mL. The Cmax [2, 9] was 2300 ng/mL, the Tmax [2, 9] was 0.5 h and the half-life ([2]; male, C57BL/6J, po, p.o. 1 mg/kg, read-out: T1/2 (converted)) was 1.2 h. For the same compound, the AUC(0-t) [2, 10] was 10800 ng·h/mL, the Cmax [2, 10] was 7200 ng/mL and the Tmax [2, 10] was 0.5 h. It also gave a half-life ([2]; male, C57BL/6J, po, p.o. 5 mg/kg, read-out: T1/2 (converted)) of 1.1 h, an AUC(0-t) [2, 11] of 41100 ng·h/mL and a Cmax [2, 11] of 19200 ng/mL. It also gave a Tmax [2, 11] of 0.5 h, a half-life ([2]; male, C57BL/6J, po, p.o. 10 mg/kg, read-out: T1/2 (converted)) of 1.2 h and an AUC(0-t) [2, 12] of 17000 ng·h/mL. The Cmax [2, 12] was 66000 ng/mL, the Tmax [2, 12] was 1 h and the half-life ([2]; male, C57BL/6J, po, p.o. 100 mg/kg, read-out: T1/2 (converted)) was 4 h. For the same compound, the AUC(0-t) [2, 13] was 29200 ng·h/mL, the Cmax [2, 13] was 122000 ng/mL and the Tmax [2, 13] was 1 h. For the same compound, the half-life ([2]; male, C57BL/6J, po, p.o. 200 mg/kg, read-out: T1/2 (converted)) was 3.8 h, the bioavailability ([2]; male, C57BL/6J, oral, i.v. 2 mg/kg) was 48.4% and the Tmax ([2]; summary in discussion, species and dose not stated) was 1 h. For the same compound, the half-life ([2]; summary in discussion, species and dose not stated, read-out: T1/2 (converted)) was 1.2 h, the solubility thermodynamic (Thermodynamic solubility; aqueous buffer, pH 3.0) was 165 µg/mL (≈ 397 µM) and the solubility thermodynamic (Thermodynamic solubility; aqueous buffer, pH 7.0) was 141 µg/mL (≈ 339 µM). The solubility thermodynamic (Thermodynamic solubility; simulated gastric fluid, pH 1.0) was 197 µg/mL (≈ 474 µM), the “nonfasting blood glucose level, average” value (ob/ob mice; 20 mg/kg p.o. + hFGF21 0.1 mg/kg i.p.) was 178 mg/dL and the “nonfasting blood glucose level, average” value (ob/ob mice; 50 mg/kg p.o. + hFGF21 0.1 mg/kg i.p.) was 154 mg/dL. For the same compound, the “decrease of blood glucose AUC” value (ob/ob mice; 20 or 50 mg/kg p.o. + hFGF21 0.1 mg/kg i.p.) was 40–45%, the “levels of intact FGF21 in plasma” value (ob/ob mice; co-administered with hFGF21 0.1 mg/kg, until 3 h) was “increased levels of intact FGF21 in plasma until 3 h” and the “levels of intact FGF21” value (ob/ob mice; co-administered with hFGF21, after 6 h of administration) was “lower than 10 ng/mL”. It also gave an IC50 (serum FAP [3]) of 29 nM, a fraction unbound at 1 µg/mL [4] of 0.22 and an IC50 (hERG) greater than 788000 nM. The IC50 (DPP4) was greater than 100000 nM, the IC50 (serum FAP [5]) was 27 nM and the “concentration from which FAP-mediated hFGF21 cleavage was inhibited” value (recombinant human FAP) was 0.4 µM. For the same compound, the remaining at 1 h, 1 µM [6] was 98%, the remaining at 1 h, 1 µM [7] was greater than 100% and the Tmax (in vivo) was 3 h. For the same compound, the “inhibition of FAP activity, maximal” value (FAP; cynomolgus monkeys (n = 3), range of individual animals) was 65–83%, the “time of maximal effect on FAP activity and intact FGF21” value (FAP; cynomolgus monkeys, 50 mg/kg) was 1 h and 2 h and the “increase of intact FGF21, maximal” value [8] was 1.5–3.5 fold.
